Converted amounts (≈) assume the structure as drawn. “Also recorded” adds a separate entry of the source. Where two headings read alike, the source gives them in different places.
Key:
[1] = Solubility in EtOAc/heptane mixtures by HPLC; type: physicochemical; conditions: organic solvent or mixture, thermodynamic from solid
Description: Solubility data were generated applying the following protocol: slurries of Compound 1 were prepared and allowed to equilibrate at 20° C. under stirring for about 18 hours. To determine the concentration in supernatant, about 0.1 mL of slurry was sampled with syringe, filtered, weighed, diluted with MeCN, and injected into an HPLC. […] Samples were cooled to 20° C., and solid residues were isolated by filtration on 20-μm PTFE filter, dried under vacuum at 40° C., and submitted to XRPD analysis. Compound 1 peak area for each sample was recorded, and solubility data were calculated using previously determined response factor (245 nm, 1460 mAU*sec/mg/mL, Table 7). The data were combined and visualized on chart with the solubility as function of the percentage of heptane by volume. […] Solubility smoothly decreases with the increase in heptane amount.

CYP2B6 = target: T1, CYP2B6 (Homo sapiens, UniProt P20813); experiment: CYP450 reaction phenotyping in Supersomes, CYP2B6; type: in vitro ADME
T1 construct: purchased
Description: (§1) In Vitro CYP450 Reaction Phenotyping Study in Supersomes™ Over-Expressing Human CYP Enzymes
(§2) The CYPP450 enzymes involved in the Phase I metabolism of Compound 1 Form A were investigated in vitro. Compound 1 Form A was metabolized by CYP1A2, CYP2D6 and CYP3A4 and with T1/2 values of 64, 14, and 176 min, respectively, and CLint of 0.261, 0.984 and 0.0786 μL/min/pmol CYP, respectively. No evidence of Compound 1 metabolism by CYP2B6, CYP2C8, CYP2C9 and CYP2C19 was observed.

CYP2C19 = CYP2C19 (Homo sapiens, UniProt P33261); experiment: CYP450 reaction phenotyping in Supersomes, CYP2C19; type: in vitro ADME
Description: as §1, §2

[2] = target: T2, pregnane X receptor (PXR) (Homo sapiens, UniProt O75469); experiment: PXR receptor activation, human; type: in vitro ADME
T2 sequence (O75469 1-434): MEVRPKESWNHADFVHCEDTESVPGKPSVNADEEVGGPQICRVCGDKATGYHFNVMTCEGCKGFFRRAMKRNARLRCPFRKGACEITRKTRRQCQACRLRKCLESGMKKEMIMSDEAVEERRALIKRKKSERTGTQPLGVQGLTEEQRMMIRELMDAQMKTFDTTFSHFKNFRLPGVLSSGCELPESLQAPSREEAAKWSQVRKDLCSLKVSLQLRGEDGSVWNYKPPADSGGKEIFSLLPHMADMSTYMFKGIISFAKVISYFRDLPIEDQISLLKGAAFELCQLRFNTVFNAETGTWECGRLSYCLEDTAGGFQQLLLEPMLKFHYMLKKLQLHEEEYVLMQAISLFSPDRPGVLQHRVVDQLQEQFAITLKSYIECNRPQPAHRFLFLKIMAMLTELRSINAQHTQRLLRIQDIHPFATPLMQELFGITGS
Description: (§3) The objective of this study was to determine the human and rat pregnane X receptor (PXR) and human and rat aryl hydrocarbon receptor (AhR) receptor activation potential of Compound 1 Form A. The activation of PXR is a marker for induction of CYP3A4/5 and […] and the activation of AhR is a marker for induction of CYP1A.

[3] = target: aryl hydrocarbon receptor (AhR) (Homo sapiens, UniProt P35869); experiment: AhR receptor activation, human; type: in vitro ADME; conditions: at 30 μM
Description: as §3

mGluR5 = target: T3, mGluR5 (Mus musculus, UniProt Q3UVX5); experiment: [18F]FPEB PET displacement, receptor occupancy; type: in vivo, mice; conditions: for receptor occupancy at 3.75 mg/kg: mouse
T3 construct: from tissue; host or cells: brain of living mice
Description: A mGluR5 PET ligand, [^18F]FPEB, was used to assess receptor occupancy in mice. Mice were dosed orally twice a day with different doses of Compound 1. The available mGluR5 sites in brain were assessed in anesthetized mice both at peak 1 h after a single dose, and at trough after 7 days of twice daily (b.i.d.) oral dosing. The 3.75 mg/kg b.i.d. dose maintains >90% receptor occupancy throughout the dosing period. […] FPEB into the brain of mice. Displacement studies were conducted at expected trough levels and conducted at three dose levels: 0.42, 1.25 and 3.75 mg/kg. The 3.75 mg/kg dose was able to achieve >90% receptor occupancy at trough.

dKI mice = experiment: SV2A PET imaging of synaptic density in APPNLGF/MAPT (dKI) mouse model; type: in vivo; conditions: 12 months of age, one-month treatment, 3.75 mg/kg q12 oral
Description: The objective of this study was to assess synaptic density of control and Amyloid Precursor Protein carrying NL-G-F mutations/Microtubule-associated protein tau (APP^NLGF/MAPT) (dKI—double knock-in) mice before and after treatment with Compound 1. Vehicle (95% PEG-400/5% Solutol) or Compound 1 at 7.5 mg/kg/day (3.75 mg/kg q12) was given to control and dKI mice for at least 28 days by oral administration.
To further maximize translational relevance, in other studies mice were aged to the point that synapse loss was detectable using SV2A PET. At 12 months of age, synapse density, as measured by hippocampal/brainstem [^18F]SDM-8 SUVR-1, was reduced in dKI mice relative to wild-type.

C1q = C1q production, synaptic localization and synaptic engulfment; design: species or system mice; conditions: mouse, in vivo
Description: Compound 1 (e.g., Form A) prevented Alzheimer's triggered aberrant synaptic signaling while preserving physiological Glu activation. Studies have been conducted to show oral Compound 1 effectively occupied brain mGluR5 sites visualized by [^18F]FPEB PET at doses 250-fold below adverse effect levels in rodent and non-human primate. […] Production of the microglial mediator, C1q, was not altered by Compound 1, but Alzheimer-gene-dependent C1q localization to synapses and synaptic engulfment were prevented. Thus, selective modulation of mGluR5 reversed neuronal gene expression changes to protect synapses from damage by microglial mediators.

T3 sequence (Q3UVX5 19-1203): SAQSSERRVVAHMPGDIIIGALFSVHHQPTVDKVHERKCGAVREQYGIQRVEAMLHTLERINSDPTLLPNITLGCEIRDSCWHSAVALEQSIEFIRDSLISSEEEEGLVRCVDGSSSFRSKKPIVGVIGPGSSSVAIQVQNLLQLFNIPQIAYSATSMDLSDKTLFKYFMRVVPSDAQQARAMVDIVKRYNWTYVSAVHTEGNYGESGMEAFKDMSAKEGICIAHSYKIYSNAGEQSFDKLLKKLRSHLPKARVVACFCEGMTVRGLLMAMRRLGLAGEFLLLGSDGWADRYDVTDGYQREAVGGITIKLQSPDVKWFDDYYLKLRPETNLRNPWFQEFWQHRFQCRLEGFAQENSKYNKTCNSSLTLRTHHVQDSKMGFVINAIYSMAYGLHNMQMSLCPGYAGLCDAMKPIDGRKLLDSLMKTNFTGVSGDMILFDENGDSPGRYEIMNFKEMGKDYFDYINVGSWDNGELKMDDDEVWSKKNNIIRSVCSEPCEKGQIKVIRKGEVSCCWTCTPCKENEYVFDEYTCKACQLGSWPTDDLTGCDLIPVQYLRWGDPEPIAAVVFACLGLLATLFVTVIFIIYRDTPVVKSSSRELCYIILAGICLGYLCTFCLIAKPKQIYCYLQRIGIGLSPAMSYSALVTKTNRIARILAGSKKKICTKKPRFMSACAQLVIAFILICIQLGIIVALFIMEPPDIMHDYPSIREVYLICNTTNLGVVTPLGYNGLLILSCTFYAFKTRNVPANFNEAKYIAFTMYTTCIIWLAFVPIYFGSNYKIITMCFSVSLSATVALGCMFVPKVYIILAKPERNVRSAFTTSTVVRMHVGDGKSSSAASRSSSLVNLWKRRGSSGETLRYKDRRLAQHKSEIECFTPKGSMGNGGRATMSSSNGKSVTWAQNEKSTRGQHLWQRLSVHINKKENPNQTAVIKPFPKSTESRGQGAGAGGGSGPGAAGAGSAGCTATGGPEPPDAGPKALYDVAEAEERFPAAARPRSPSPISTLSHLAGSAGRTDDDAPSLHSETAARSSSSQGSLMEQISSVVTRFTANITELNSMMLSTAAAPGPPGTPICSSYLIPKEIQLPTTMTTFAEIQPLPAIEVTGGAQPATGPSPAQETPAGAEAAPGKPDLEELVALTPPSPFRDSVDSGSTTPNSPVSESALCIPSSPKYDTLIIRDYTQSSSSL
Chain of aryl hydrocarbon receptor (AhR) (P35869 11-848): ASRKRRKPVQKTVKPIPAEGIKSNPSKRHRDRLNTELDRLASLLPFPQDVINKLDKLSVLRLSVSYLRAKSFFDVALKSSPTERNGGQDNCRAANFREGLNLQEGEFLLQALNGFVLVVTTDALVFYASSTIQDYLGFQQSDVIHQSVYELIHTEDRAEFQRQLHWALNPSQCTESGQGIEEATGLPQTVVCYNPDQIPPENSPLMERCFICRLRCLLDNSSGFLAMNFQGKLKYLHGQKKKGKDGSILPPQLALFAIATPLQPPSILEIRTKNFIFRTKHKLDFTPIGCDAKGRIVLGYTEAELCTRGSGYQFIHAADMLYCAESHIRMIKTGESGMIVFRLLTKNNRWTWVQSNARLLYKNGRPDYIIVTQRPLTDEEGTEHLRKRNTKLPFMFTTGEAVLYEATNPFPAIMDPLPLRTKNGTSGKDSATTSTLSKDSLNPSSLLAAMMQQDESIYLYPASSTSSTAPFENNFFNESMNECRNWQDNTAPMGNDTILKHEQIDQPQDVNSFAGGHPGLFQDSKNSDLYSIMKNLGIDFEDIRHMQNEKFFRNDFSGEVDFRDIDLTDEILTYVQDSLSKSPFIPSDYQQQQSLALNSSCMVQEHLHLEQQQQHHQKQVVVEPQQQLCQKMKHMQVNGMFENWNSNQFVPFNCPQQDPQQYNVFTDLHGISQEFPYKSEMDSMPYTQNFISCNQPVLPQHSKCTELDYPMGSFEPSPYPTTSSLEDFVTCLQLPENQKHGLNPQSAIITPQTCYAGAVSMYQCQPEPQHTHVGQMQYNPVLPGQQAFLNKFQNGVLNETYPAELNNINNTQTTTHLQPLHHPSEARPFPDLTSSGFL
T1 sequence (P20813 whole entry): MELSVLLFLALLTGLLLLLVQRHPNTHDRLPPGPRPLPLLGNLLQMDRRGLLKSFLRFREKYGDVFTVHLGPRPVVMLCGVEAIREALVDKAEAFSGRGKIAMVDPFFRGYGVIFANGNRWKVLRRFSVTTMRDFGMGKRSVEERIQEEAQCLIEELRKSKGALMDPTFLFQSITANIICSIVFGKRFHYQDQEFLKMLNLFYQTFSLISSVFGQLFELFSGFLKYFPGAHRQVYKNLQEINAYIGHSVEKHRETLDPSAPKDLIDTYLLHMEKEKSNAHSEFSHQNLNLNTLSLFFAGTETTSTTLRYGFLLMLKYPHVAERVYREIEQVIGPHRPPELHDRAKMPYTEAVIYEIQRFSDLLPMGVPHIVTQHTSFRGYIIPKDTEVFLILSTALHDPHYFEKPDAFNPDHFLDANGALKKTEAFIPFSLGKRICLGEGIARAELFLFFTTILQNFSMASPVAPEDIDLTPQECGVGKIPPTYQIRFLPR
Chain of CYP2C19 (P33261 whole entry): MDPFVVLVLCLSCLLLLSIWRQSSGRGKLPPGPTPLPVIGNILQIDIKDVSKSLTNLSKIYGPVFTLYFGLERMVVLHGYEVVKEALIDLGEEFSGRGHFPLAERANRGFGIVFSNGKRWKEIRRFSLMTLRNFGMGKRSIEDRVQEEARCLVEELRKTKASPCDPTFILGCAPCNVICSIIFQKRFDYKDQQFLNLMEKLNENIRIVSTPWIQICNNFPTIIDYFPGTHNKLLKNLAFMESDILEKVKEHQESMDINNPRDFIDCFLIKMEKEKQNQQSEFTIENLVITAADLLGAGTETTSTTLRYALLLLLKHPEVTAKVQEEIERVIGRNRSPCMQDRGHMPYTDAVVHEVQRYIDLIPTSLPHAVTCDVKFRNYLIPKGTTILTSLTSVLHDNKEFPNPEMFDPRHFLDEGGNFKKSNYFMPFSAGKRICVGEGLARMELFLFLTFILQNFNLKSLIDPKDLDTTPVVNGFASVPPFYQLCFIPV

O=C1N[C@H](c2cncc(C#Cc3ccccc3)c2)[C@@H](c2ccccc2Cl)O1 [Compound 1, (4R,5R)-5-(2-chlorophenyl)-4-(5-(phenylethynyl)pyridin-3-yl)oxazolidin-2-one]
solubility ([1]; EtOAc/heptane 20:80 (% v/v), 20° C.): 2 mg/mL (≈ 5.34 mM)
solubility ([1]; EtOAc/heptane 20:80 (% v/v), 45° C.): 3 mg/mL (≈ 8 mM)
solubility ([1]; EtOAc/heptane 32:68 (% v/v), 20° C.): 6 mg/mL (≈ 16 mM)
solubility ([1]; EtOAc/heptane 32:68 (% v/v), 45° C.): 10 mg/mL (≈ 26.7 mM)
solubility ([1]; EtOAc/heptane 40:60 (% v/v), 20° C.): 11 mg/mL (≈ 29.3 mM)
solubility ([1]; EtOAc/heptane 40:60 (% v/v), 45° C.): 17 mg/mL (≈ 45.4 mM)
solubility ([1]; EtOAc/heptane 50:50 (% v/v), 20° C.): 20 mg/mL (≈ 53.4 mM)
solubility ([1]; EtOAc/heptane 50:50 (% v/v), 45° C.): 34 mg/mL (≈ 90.7 mM)
solubility ([1]; EtOAc/heptane 60:40 (% v/v), 20° C.): 33 mg/mL (≈ 88 mM)
solubility ([1]; EtOAc/heptane 60:40 (% v/v), 45° C.): 61 mg/mL (≈ 163 mM)
solubility ([1]; EtOAc/heptane 70:30 (% v/v), 20° C.): 49 mg/mL (≈ 131 mM)
solubility ([1]; EtOAc/heptane 70:30 (% v/v), 45° C.): 85 mg/mL (≈ 227 mM)
solubility ([1]; EtOAc/heptane 80:20 (% v/v), 20° C.): 69 mg/mL (≈ 184 mM)
solubility ([1]; EtOAc/heptane 80:20 (% v/v), 45° C.): 124 mg/mL (≈ 331 mM)
solubility ([1]; EtOAc/heptane 90:10 (% v/v), 20° C.): 95 mg/mL (≈ 253 mM)
solubility ([1]; EtOAc/heptane 90:10 (% v/v), 45° C.): 177 mg/mL (≈ 472 mM)
solubility ([1]; EtOAc/heptane 100:0 (% v/v), 20° C.): 115 mg/mL (≈ 307 mM)
solubility ([1]; EtOAc/heptane 100:0 (% v/v), 45° C.): 187 mg/mL (≈ 499 mM)
metabolism by CYP2B6 (CYP2B6): No evidence
metabolism by CYP2C19 (CYP2C19): No evidence
PXR activation, % of the positive control [2]: 29.6%
calculated F2 value, PXR [2]: 5.05 UM
mean maximum fold activation of PXR [2]: 4.58 fold
AhR activation, % of the positive control [3]: 1.11%
mean maximum fold activation of AhR [3]: 1.78 fold
free drug above the Ki (mGluR5; mice, 3.75 mg/kg b.i.d.): 25 fold
free trough drug level (mGluR5; mice, 3.75 mg/kg b.i.d. oral): 15 nM
receptor occupancy at 3.75 mg/kg (mGluR5; mice, 3.75 mg/kg b.i.d. oral, read-out: receptor occupancy throughout the dosing period): > 90%
receptor occupancy at 3.75 mg/kg (mGluR5; mice, 3.75 mg/kg dose, oral, read-out: receptor occupancy at trough): > 90%
doses occupying brain mGluR5 sites below adverse effect levels (mGluR5; oral, rodent and non-human primate): 250 fold
synaptic density, SV2A PET (hippocampal/brainstem [18F]SDM-8 SUVR-1) (dKI mice): fully recovered; also recorded: highly significant increase
Alzheimer-gene-dependent C1q localization to synapses and synaptic engulfment (C1q): prevented
production of the microglial mediator C1q (C1q): not altered
